Patent US10590113B2, “6-hydroxy-4-oxo-1,4-dihydropyrimidine-5-carboxamides as APJ agonists” (priority 2016, dated 2020)
Like-named read-outs stand apart in the source and are kept apart here.

Target: T1, human APJ receptor (Homo sapiens, UniProt P35414)
T1 construct: expressed in transfected cells; host or cells: HEK293
T1 sequence (P35414 1-380): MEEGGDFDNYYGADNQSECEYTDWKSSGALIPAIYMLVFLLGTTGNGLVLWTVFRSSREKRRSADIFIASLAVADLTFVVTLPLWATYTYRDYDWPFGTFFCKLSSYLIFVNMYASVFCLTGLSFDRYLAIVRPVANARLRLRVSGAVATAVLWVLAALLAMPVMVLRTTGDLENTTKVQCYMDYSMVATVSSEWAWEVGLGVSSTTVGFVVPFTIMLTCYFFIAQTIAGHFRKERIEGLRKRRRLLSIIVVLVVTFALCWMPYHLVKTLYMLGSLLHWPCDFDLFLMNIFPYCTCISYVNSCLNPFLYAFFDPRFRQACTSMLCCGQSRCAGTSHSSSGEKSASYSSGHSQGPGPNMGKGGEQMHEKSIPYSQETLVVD
Assay: Intracellular cAMP Accumulation Assay (APJ hcAMP, HTRF)
Type: cell-based
Outline: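 Stably transfected HEK293 cells (5,000/well) incubated 30 min at room temperature with serially diluted compound, […] and 2 μM forskolin. cAMP measured by HTRF after 60 min with detection reagents, quantified against a cAMP standard curve; EC50 from variable-slope sigmoidal fit of inhibition of forskolin-stimulated cAMP.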

[1] = human APJ, cAMP accumulation, potency range class, read-out: hAPJ cAMP EC50 Potency range
[2] = human APJ, intracellular cAMP accumulation, read-out: hAPJ cAMP EC50 Potency range

Structure (SMILES)	EC50 [1] [nM]	EC50 [2] [nM]	also measured
COc1ccccc1C1CCN(C(=O)c2c(O)n(-c3c(OC)cccc3OC)c(-c3cncc(C)c3)nc2=O)C1 (single isomer, unassigned) [Example 234, 1-(2,6-dimethoxyphenyl)-6-hydroxy-5-[3-(2-methoxyphenyl)pyrrolidine-1-carbonyl]-2-(5-methylpyridin-3-yl)-1,4-dihydropyrimidin-4-one]	0.01 to 10		
COc1cccc(OC)c1-n1c(-c2cncc(C)c2)nc(=O)c(C(=O)N2CCC(c3ccccc3F)C2)c1O (single isomer, unassigned) [Example 233, 1-(2,6-dimethoxyphenyl)-5-[3-(2-fluorophenyl)pyrrolidine-1-carbonyl]-6-hydroxy-2-(5-methylpyridin-3-yl)-1,4-dihydropyrimidin-4-one]	0.01 to 10		
CCCCc1nc(=O)c(C(=O)N2CC[C@@H](c3ccccc3)C2)c(O)n1C(C)C [Example 159, 2-butyl-6-hydroxy-5-[(3S)-3-phenylpyrrolidine-1-carbonyl]-3-(propan-2-yl)-3,4-dihydropyrimidin-4-one]		100 to 300	
CCCCc1nc(=O)c(C(=O)N2CCC(c3cccnc3)C2)c(O)n1-c1c(OC)cccc1OC (single isomer, unassigned) [Example 75, 2-butyl-1-(2,6-dimethoxyphenyl)-6-hydroxy-5-[3-(pyridin-3-yl)pyrrolidine-1-carbonyl]-1,4-dihydropyrimidin-4-one]			EC50: 0.01 to 10 nM
COc1cccc(OC)c1-n1c(CC2CC2)nc(=O)c(C(=O)N2CCC(c3cccc(Cl)c3)C2)c1O (racemic) [Example 28, 5-(3-(3-chlorophenyl)pyrrolidine-1-carbonyl)-2-(cyclopropylmethyl)-1-(2,6-dimethoxyphenyl)-6-hydroxypyrimidin-4(1H)-one]		0.01 to 10	
CCc1cccc(CC)c1-n1c(-c2ccn(C(C)C)n2)nc(=O)c(C(=O)N2CCC(c3ncc(Cl)cc3F)C2)c1O (single isomer, unassigned) [Example 290, 5-[3-(5-chloro-3-fluoropyridin-2-yl)pyrrolidine-1-carbonyl]-1-(2,6-diethylphenyl)-6-hydroxy-2-[1-(propan-2-yl)-1H-pyrazol-3-yl]-1,4-dihydropyrimidin-4-one]	0.01 to 10		
[2H]C([2H])([2H])Oc1cccc(OC([2H])([2H])[2H])c1-n1c(COCC)nc(=O)c(C(=O)N2CC[C@@H](c3ccccc3)C2)c1O [Example 109, 1-[2,6-bis(^2H3)methoxyphenyl]-2-(ethoxymethyl)-6-hydroxy-5-[(3S)-3-phenylpyrrolidine-1-carbonyl]-1,4-dihydropyrimidin-4-one]			EC50: 0.01 to 10 nM
COc1cccc(OC)c1-n1c(COC2CC2)nc(=O)c(C(=O)N2CCC(c3ccc(Cl)cc3)C2)c1O (single isomer, unassigned) [Example 21, 5-(3-(4-chlorophenyl)pyrrolidine-1-carbonyl)-2-(cyclopropoxymethyl)-1-(2,6-dimethoxyphenyl)-6-hydroxypyrimidin-4(1H)-one]		0.01 to 10	
CCCCc1nc(=O)c(C(=O)N2CCC(c3ncc(F)cc3F)C2)c(O)n1-c1c(OC)cccc1OC (single isomer, unassigned) [Example 358, 2-butyl-5-(3-(3,5-difluoropyridin-2-yl)pyrrolidine-1-carbonyl)-1-(2,6-dimethoxyphenyl)-6-hydroxypyrimidin-4(1H)-one]	0.01 to 10		
CC[C@@H](c1cc(F)cc(F)c1)n1c(-c2cnn(C)c2)nc(=O)c(C(=O)N2CCC(c3ccc(F)cc3)C2)c1O (single isomer, unassigned) [Example 197]		0.01 to 10	
COc1cccc(OC)c1-n1c(COC(C)C)nc(=O)c(C(=O)N2CCC(c3ccc(F)cc3F)C2)c1O (single isomer, unassigned) [Example 163, 5-[3-(2,4-difluorophenyl)pyrrolidine-1-carbonyl]-1-(2,6-dimethoxyphenyl)-6-hydroxy-2-[(propan-2-yloxy)methyl]-1,4-dihydropyrimidin-4-one]		0.01 to 10	
COc1cccc(OC)c1-n1c(-c2ccc(F)cc2)nc(=O)c(C(=O)N2CCC(c3ncc(Cl)cc3F)C2)c1O (single isomer, unassigned) [Example 265, 5-[3-(5-chloro-3-fluoropyridin-2-yl)pyrrolidine-1-carbonyl]-1-(2,6-dimethoxyphenyl)-2-(4-fluorophenyl)-6-hydroxy-1,4-dihydropyrimidin-4-one]	0.01 to 10		
CCCCc1nc(=O)c(C(=O)N2CCC(c3ncc(Cl)cc3F)C2)c(O)n1-c1c(OC)cccc1OC (single isomer, unassigned) [Example 356, 2-butyl-5-(3-(5-chloro-3-fluoropyridin-2-yl)pyrrolidine-1-carbonyl)-1-(2,6-dimethoxyphenyl)-6-hydroxypyrimidin-4(1H)-one]	0.01 to 10		
[2H]C([2H])([2H])Oc1cccc(OC([2H])([2H])[2H])c1-n1c(COCC)nc(=O)c(C(=O)N2CC[C@H](c3ccccc3)C2)c1O [Example 106, 1-[2,6-bis(^2H3)methoxyphenyl]-2-(ethoxymethyl)-6-hydroxy-5-[(3R)-3-phenylpyrrolidine-1-carbonyl]-1,4-dihydropyrimidin-4-one]			EC50: 0.01 to 10 nM
COc1cccc(-c2nc(=O)c(C(=O)N3CCC(c4ncc(F)cc4F)C3)c(O)n2-c2c(OC)cccc2OC)c1 (single isomer, unassigned) [Example 246, 5-[3-(3,5-difluoropyridin-2-yl)pyrrolidine-1-carbonyl]-1-(2,6-dimethoxyphenyl)-6-hydroxy-2-(3-methoxyphenyl)-1,4-dihydropyrimidin-4-one]	0.01 to 10		
CC[C@@H](c1cc(F)cc(F)c1)n1c(-c2ccn(C)n2)nc(=O)c(C(=O)N2CCC(c3ncccc3F)C2)c1O (single isomer, unassigned) [Example 201]		0.01 to 10	
COc1cccc(OC)c1-n1c(-c2cccc(C)c2)nc(=O)c(C(=O)N2CCC(c3ncc(Cl)cc3F)C2)c1O (single isomer, unassigned) [Example 263, 5-[3-(5-chloro-3-fluoropyridin-2-yl)pyrrolidine-1-carbonyl]-1-(2,6-dimethoxyphenyl)-6-hydroxy-2-(3-methylphenyl)-1,4-dihydropyrimidin-4-one]	0.01 to 10		
CCCCc1nc(O)c(C(=O)N2CCC(c3ccc(F)cc3)C2)c(=O)n1-c1c(CC)cccc1CC (racemic) [Example 89, 2-butyl-3-(2,6-diethylphenyl)-5-[3-(4-fluorophenyl)pyrrolidine-1-carbonyl]-6-hydroxy-3,4-dihydropyrimidin-4-one]		0.01 to 10	
CCCCc1nc(=O)c(C(=O)N2CC[C@H](c3ccccc3)C2)c(O)n1C(c1ccccc1)C(C)C (stereo partly drawn) [Example 130, 2-butyl-6-hydroxy-3-(2-methyl-1-phenylpropyl)-5-[(3R)-3-phenylpyrrolidine-1-carbonyl]-3,4-dihydropyrimidin-4-one]		10 to 100	
CCOCc1nc(=O)c(C(=O)N2CCC(c3ccccn3)C2)c(O)n1-c1c(OC)cccc1OC (centres unmarked) [Example 3, 1-(2,6-Dimethoxyphenyl)-2-(ethoxymethyl)-6-hydroxy-5-(3-(pyridin-2-yl)pyrrolidine-1-carbonyl)pyrimidin-4(1H)-one]			EC50 (HEK293 cells stably expressing human APJ receptor, inhibition of forskolin-mediated cAMP production, read-out: Human APJ cAMP EC50 potency range): 0.01 to 10 nM
CCn1ccc(-c2nc(=O)c(C(=O)N3CC[C@H](c4ccccc4)C3)c(O)n2-c2cccc(C(C)C)c2)n1 [Example 291, 2-(1-ethyl-1H-pyrazol-3-yl)-6-hydroxy-5-[(3R)-3-phenylpyrrolidine-1-carbonyl]-1-[3-(propan-2-yl)phenyl]-1,4-dihydropyrimidin-4-one]	0.01 to 10		
CCOCc1nc(=O)c(C(=O)N2CCC(c3cccnc3)C2)c(O)n1-c1c(OC)cccc1OC (single isomer, unassigned) [Example 85, 1-(2,6-dimethoxyphenyl)-2-(ethoxymethyl)-6-hydroxy-5-[3-(pyridin-3-yl)pyrrolidine-1-carbonyl]-1,4-dihydropyrimidin-4-one]		0.01 to 10	
COc1cccc(OC)c1-n1c(CCC2CC2)nc(=O)c(C(=O)N2CCC(c3ccc(F)cn3)C2)c1O (single isomer, unassigned) [Example 175, 2-(2-cyclopropylethyl)-1-(2,6-dimethoxyphenyl)-5-[3-(5-fluoropyridin-2-yl)pyrrolidine-1-carbonyl]-6-hydroxy-1,4-dihydropyrimid in-4-one]		0.01 to 10	
CCn1ccc(-c2nc(=O)c(C(=O)N3CCC(c4ncc(F)cc4F)C3)c(O)n2[C@H](c2cc(F)cc(F)c2)C(C)C)n1 (single isomer, unassigned) [Example 327]	0.01 to 10		
COc1cccc(OC)c1-n1c(-c2csc(C)n2)nc(=O)c(C(=O)N2CCC(Oc3cccc(F)c3F)CC2)c1O [Example 277, 5-[4-(2,3-difluorophenoxy)piperidine-1-carbonyl]-1-(2,6-dimethoxyphenyl)-6-hydroxy-2-(2-methyl-1,3-thiazol-4-yl)-1,4-dihydropyrimidin-4-one]	0.01 to 10		
CCc1cccc(CC)c1-n1c(-c2ccn(CC)n2)nc(=O)c(C(=O)N2CCC(c3ncc(F)cc3F)C2)c1O (single isomer, unassigned) [Example 309, 1-(2,6-diethylphenyl)-5-[3-(3,5-difluoropyridin-2-yl)pyrrolidine-1-carbonyl]-2-(1-ethyl-1H-pyrazol-3-yl)-6-hydroxy-1,4-dihydropyrimidin-4-one]	0.01 to 10		
